The series is described as follows: Solubility of photoinitiator. It counts as physicochemical.

Bounds are passed on as bounds.

With `Cc1cc(C)c(C(=O)P(=O)(C(=O)c2c(C)cc(C)cc2C)c2ccccc2)c(C)c1` [Irgacure 819, bis(2,4,6-trimethylbenzoyl) phenyl phosphine oxide], the “Solubility (wt %)” value is <5 wt %.

The values above are taken from patent US8449635B2, “Abrasive articles and methods for making same” (Saint-Gobain Abrasives, Inc., priority 2007, dated 2013).
